Test results taken from patent US11229623B2 (GlaxoSmithKline Intellectual Property (No.2) Limited, priority 2016, dated 2022).

Target: T1, human TRPV4 (Homo sapiens, UniProt Q9HBA0)
T1 construct: expressed in transfected cells; host or cells: BHK/AC9 cells transduced with BacMam virus
Assay: FLIPR assay for hTRPV4 expressed in BHK cells: inhibition of Agonist Compound-induced calcium signal
Format: cell-based
Conditions: hTRPV4 in BHK/AC9 cells, FLIPR calcium signal, agonist at EC80; reported as range class; read-out: IC50
How it was run: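 BHK/AC9 cells transduced with BacMam human TRPV4 (MOI 78), plated 15,000 per well and cultured 24 h at 37° C. Loaded with 2 μM Fluo-4 AM plus 500 μM Brilliant Black in HBSS for 1-1.5 h at room temperature in the dark; intracellular calcium signal read by FLIPR fluorescence.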

T1 sequence (Q9HBA0 whole entry): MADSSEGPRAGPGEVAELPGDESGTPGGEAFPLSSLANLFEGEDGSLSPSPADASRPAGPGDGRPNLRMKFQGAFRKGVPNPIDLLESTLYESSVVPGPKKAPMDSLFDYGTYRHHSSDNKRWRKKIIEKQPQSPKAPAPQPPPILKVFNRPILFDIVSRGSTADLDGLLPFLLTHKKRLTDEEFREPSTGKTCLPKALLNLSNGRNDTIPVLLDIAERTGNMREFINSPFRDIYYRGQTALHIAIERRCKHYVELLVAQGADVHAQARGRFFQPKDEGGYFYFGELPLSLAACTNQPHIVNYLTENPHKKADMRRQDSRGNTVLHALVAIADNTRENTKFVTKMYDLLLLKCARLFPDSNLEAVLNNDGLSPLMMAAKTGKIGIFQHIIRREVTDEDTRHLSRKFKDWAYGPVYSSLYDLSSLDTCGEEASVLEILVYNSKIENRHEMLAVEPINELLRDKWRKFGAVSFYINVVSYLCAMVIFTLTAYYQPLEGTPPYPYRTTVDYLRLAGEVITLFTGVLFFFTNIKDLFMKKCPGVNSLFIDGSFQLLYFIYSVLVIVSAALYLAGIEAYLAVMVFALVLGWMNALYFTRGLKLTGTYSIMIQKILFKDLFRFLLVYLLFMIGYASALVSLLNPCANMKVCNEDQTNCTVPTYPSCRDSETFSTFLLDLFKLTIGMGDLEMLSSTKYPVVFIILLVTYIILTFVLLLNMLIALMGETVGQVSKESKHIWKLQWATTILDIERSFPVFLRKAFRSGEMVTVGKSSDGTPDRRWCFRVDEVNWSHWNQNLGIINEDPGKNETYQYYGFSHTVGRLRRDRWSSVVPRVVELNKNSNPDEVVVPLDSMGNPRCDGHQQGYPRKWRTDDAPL

SMILES | IC50 [nM]
C[C@@H](O)[C@]1(O)CN(S(=O)(=O)c2ccc(OC(F)(F)F)nc2)C[C@@H]1Oc1ccc(C#N)c(F)c1 [Example 208, 2-fluoro-4-(((3S,4R)-4-hydroxy-4-((R)-1-hydroxyethyl)-1-((6-(trifluoromethoxy)pyridin-3-yl)sulfonyl)pyrrolidin-3-yl)oxy)benzonitrile] | 10 to 100
N#Cc1ccc(O[C@H]2CN(S(=O)(=O)c3ccc(OC(F)F)nc3)C[C@@]2(O)CO)cc1F [Example 126, 4-(((3S,4R)-1-((6-(difluoromethoxy)pyridin-3-yl)sulfonyl)-4-hydroxy-4-(hydroxymethyl)pyrrolidin-3-yl)oxy)-2-fluorobenzonitrile] | 100 to 1000
Cc1ccc(S(=O)(=O)N2C[C@H](Oc3ccc(C#N)c(F)c3)[C@](O)(CO)C2)cc1F [Example 118, 2-fluoro-4-(((3S,4R)-1-((3-fluoro-4-methylphenyl)sulfonyl)-4-hydroxy-4-(hydroxymethyl)pyrrolidin-3-yl)oxy)benzonitrile] | 10 to 100
N#Cc1ccc(O[C@H]2CN(S(=O)(=O)c3ccc(C(F)(F)F)cc3C#N)C[C@@]2(O)CO)cc1OC(F)(F)F [Example 21, 4-(((3S,4R)-1-((2-cyano-4-(trifluoromethyl)phenyl)sulfonyl)-4-hydroxy-4-(hydroxymethyl)pyrrolidin-3-yl)oxy)-2-(trifluoromethoxy)benzonitrile] | 10 to 100
N#Cc1ccc(S(=O)(=O)N2C[C@H](Oc3ccc(C#N)cc3OCC(F)(F)F)[C@](O)(CO)C2)cc1 [Example 172, 4-(((3S,4R)-1-((4-cyanophenyl)sulfonyl)-4-hydroxy-4-(hydroxymethyl)pyrrolidin-3-yl)oxy)-3-(2,2,2-trifluoroethoxy)benzonitrile] | 10 to 100
C[C@@H](N)[C@]1(O)CN(S(=O)(=O)c2ccc(Cl)cn2)C[C@@H]1Oc1ccc(C#N)c(F)c1 [Example 256, 4-(((3S,4R)-4-((R)-1-aminoethyl)-1-((5-chloropyridin-2-yl)sulfonyl)-4-hydroxypyrrolidin-3-yl)oxy)-2-fluorobenzonitrile, 2,2,2-trifluoroacetate] | 10 to 100
N#Cc1ccc(O[C@H]2CN(S(=O)(=O)c3ccc(Br)cc3C(F)(F)F)C[C@@]2(O)CO)cc1F [Example 121, 4-(((3S,4R)-1-((4-bromo-2-(trifluoromethyl)phenyl)sulfonyl)-4-hydroxy-4-(hydroxymethyl)pyrrolidin-3-yl)oxy)-2-fluorobenzonitrile] | 10 to 100
N#Cc1cc(C(F)(F)F)ccc1S(=O)(=O)N1C[C@H](Oc2ccc(C(F)(F)F)nc2)[C@](O)(CO)C1 [Example 42, 2-(((3R,4S)-3-hydroxy-3-(hydroxymethyl)-4-((6-(trifluoromethyl)pyridin-3-yl)oxy)pyrrolidin-1-yl)sulfonyl)-5-(trifluoromethyl)benzonitrile] | 10 to 100
N#Cc1cccc(O[C@H]2CN(S(=O)(=O)c3ccc(C(F)(F)F)cc3C#N)C[C@@]2(O)CO)c1 [Example 53, 2-(((3R,4S)-4-(3-cyanophenoxy)-3-hydroxy-3-(hydroxymethyl)pyrrolidin-1-yl)sulfonyl)-5-(trifluoromethyl)benzonitrile] | 10 to 100
N#Cc1ccc(O[C@H]2CN(S(=O)(=O)c3ccc(C(F)(F)F)cc3C#N)C[C@@]2(O)CO)cn1 [Example 69, 5-(((3S,4R)-1-((2-cyano-4-(trifluoromethyl)phenyl)sulfonyl)-4-hydroxy-4-(hydroxymethyl)pyrrolidin-3-yl)oxy)picolinonitrile] | 10 to 100
N#Cc1cc(OCC(F)(F)F)c(O[C@H]2CN(S(=O)(=O)c3ccc(C(F)(F)F)nc3)C[C@@]2(O)CO)cc1F [Example 175, 2-fluoro-4-(((3S,4R)-4-hydroxy-4-(hydroxymethyl)-1-((6-(trifluoromethyl)pyridin-3 yl)sulfonyl)pyrrolidin-3-yl)oxy)-5-(2,2,2-trifluoroethoxy) benzonitrile] | 10 to 100
Cn1ncc(Cl)c1S(=O)(=O)N1C[C@H](Oc2ccc(C#N)c(F)c2)[C@](O)(CN)C1 [Example 241, 4-(((3S,4S)-4-(aminomethyl)-1-((4-chloro-1-methyl-1H-pyrazol-5-yl)sulfonyl)-4-hydroxpyrrolidin-3-yl)oxy)-2-fluorobenzonitrile, 2,2,2-trifluoroacetate] | 10 to 100
N#Cc1ccc(S(=O)(=O)N2C[C@H](Oc3cc(F)c(C#N)cc3F)[C@](O)(CO)C2)cn1 [Example 82, 5-(((3R,4S)-4-(4-cyano-2,5-difluorophenoxy)-3-hydroxy-3-(hydroxymethyl)pyrrolidin-1-yl)sulfonyl)picolinonitrile] | 10 to 100
N#Cc1cc(OCC(F)(F)F)c(O[C@H]2CN(S(=O)(=O)c3ccccc3)C[C@@]2(O)CO)cc1F [Example 176, 2-fluoro-4-(((3S,4R)-4-hydroxy-4-(hydroxymethyl)-1-(phenylsulfonyl)pyrrolidin-3-yl)oxy)-5-(2,2,2-trifluoroethoxy) benzonitrile] | 10 to 100
N#Cc1ccc(O[C@H]2CN(S(=O)(=O)c3ccc(OCC(F)(F)F)nn3)C[C@@]2(O)CO)cc1F [Example 133, 2-fluoro-4-(((3S,4R)-4-hydroxy-4-(hydroxymethyl)-1-((6-(2,2,2-trifluoroethoxy)pyridazin-3-yl)sulfonyl)pyrrolidin-3-yl)oxy)benzonitrile] | 10 to 100

Other lines, results leading:

IC50 [nM] | SMILES
10 to 100 | N#Cc1cc(C(F)(F)F)ccc1S(=O)(=O)N1C[C@H](Oc2ccc(F)c(F)c2F)[C@](O)(CO)C1 [Example 28, 2-(((3R,4S)-3-hydroxy-3-(hydroxymethyl)-4-(2,3,4-trifluorophenoxy)pyrrolidin-1-yl)sulfonyl)-5-(trifluoromethyl)benzonitrile]
0.1 to 10 | C[C@H](O)[C@]1(O)CN(S(=O)(=O)c2ccc(Cl)cc2C#N)C[C@@H]1Oc1ccc(C#N)c(F)c1 [Example 202, 4-(((3S,4R)-1-((4-chloro-2-cyanophenyl)sulfonyl)-4-hydroxy-4-((S)-1-hydroxyethyl)pyrrolidin-3-yl)oxy)-2-fluorobenzonitrile]
0.1 to 10 | CC[C@@H](O)[C@]1(O)CN(S(=O)(=O)c2ccc(Cl)cn2)C[C@@H]1Oc1ccc(C#N)c(F)c1 [Example 196, 4-(((3S,4R)-1-((5-chloropyridin-2-yl)sulfonyl)-4-hydroxy-4-((R)-1-hydroxypropyl)pyrrolidin-3-yl)oxy)-2-fluorobenzonitrile]
0.1 to 10 | N#Cc1cc(Cl)ccc1S(=O)(=O)N1C[C@H](Oc2ccc(F)c(F)c2)[C@](O)(CO)C1 [Example 8, 5-chloro-2-(((3R,4S)-4-(3,4-difluorophenoxy)-3-hydroxy-3-(hydroxymethyl)pyrrolidin-1-yl)sulfonyl)benzonitrite]
0.1 to 10 | CC(C)Oc1cc(C#N)c(F)cc1O[C@H]1CN(S(=O)(=O)c2ccc(C(F)(F)F)cc2C#N)C[C@@]1(O)CO [Example 161, 4-(((3S,4R)-1-((2-cyano-4-(trifluoromethyl)phenyl)sulfonyl)-4-hydroxy-4-(hydroxymethyl)pyrrolidin-3-yl)oxy)-2-fluoro-5-isopropoxybenzonitrile]
0.1 to 10 | N#Cc1cc(Cl)ccc1S(=O)(=O)N1C[C@H](Oc2ccc(Cl)cc2)[C@](O)(CO)C1 [Example 154, 5-chloro-2-(((3R,4S)-4-(4-chlorophenoxy)-3-hydroxy-3-(hydroxymethyl)pyrrolidin-1-yl)sulfonyl)benzonitrile]
0.1 to 10 | N#Cc1ccc(S(=O)(=O)N2C[C@H](Oc3ccc(C#N)c(F)c3)[C@](O)(CO)C2)c(F)c1 [Example 113, 4-(((3S,4R)-1-((4-cyano-2-fluorophenyl)sulfonyl)-4-hydroxy-4-(hydroxymethyl)pyrrolidin-3-yl)oxy)-2-fluorobenzonitrile]
0.1 to 10 | COc1cc(C#N)c(F)cc1O[C@H]1CN(S(=O)(=O)c2ccc(C(F)(F)F)cc2C#N)C[C@@]1(O)CO [Example 158, 4-(((3S,4R)-1-((2-cyano-4-(trifluoromethyl)phenyl)sulfonyl)-4-hydroxy-4-(hydroxymethyl)pyrrolidin-3-yl)oxy)-2-fluoro-5-methoxybenzonitrile]
0.1 to 10 | N#Cc1cc(F)ccc1S(=O)(=O)N1C[C@H](Oc2ccc(Cl)cc2)[C@](O)(CO)C1 [Example 155, 2-(((3R,4S)-4-(4-chlorophenoxy)-3-hydroxy-3-(hydroxymethyl)pyrrolidin-1-yl)sulfonyl)-5-fluorobenzonitrile]
0.1 to 10 | N#Cc1cc(OCC(F)(F)F)c(O[C@H]2CN(S(=O)(=O)c3ccc(C(F)(F)F)cc3C#N)C[C@@]2(O)CO)cc1F [Example 157, 4-(((3S,4R)-1-((2-cyano-4-(trifluoromethyl)phenyl)sulfonyl)-4-hydroxy-4-(hydroxymethyl)pyrrolidin-3-yl)oxy)-2-fluoro-5-(2,2,2-trifluoroethoxy)benzonitrile]
0.1 to 10 | N#Cc1ccc(O[C@H]2CN(S(=O)(=O)c3ccc(Cl)cc3C#N)C[C@]23CNC(=O)O3)cc1F [Example 255, 4-(((5R,9S)-7-((4-chloro-2-cyanophenyl)sulfonyl)-2-oxo-1-oxa-3,7-diazaspiro[4.4]nonan-9-yl)oxy)-2-fluorobenzonitrile]
0.1 to 10 | N#Cc1ccc(O[C@H]2CN(S(=O)(=O)c3ccccc3C#N)C[C@@]2(O)CO)c(OCC(F)(F)F)c1 [Example 185, 4-(((3S,4R)-1-((2-cyanophenyl)sulfonyl)-4-hydroxy-4-(hydroxymethyl)pyrrolidin-3-yl)oxy)-3-(2,2,2-trifluoroethoxy) benzonitrile]
0.1 to 10 | N#Cc1ccc(O[C@H]2CN(S(=O)(=O)c3ccc(Cl)cc3C#N)C[C@@]2(O)CO)cc1F [Example 3, 4-(((3S,4R)-1-((4-chloro-2-cyanophenyl)sulfonyl)-4-hydroxy-4-(hydroxymethyl)pyrrolidin-3-yl)oxy)-2-fluorobenzonitrile]
0.1 to 10 | N#Cc1ccc(S(=O)(=O)N2C[C@H](Oc3cc(F)c(C#N)cc3OCC(F)(F)F)[C@](O)(CO)C2)cn1 [Example 174, 5-(((3R,4S)-4-(4-cyano-5-fluoro-2-(2,2,2-trifluoroethoxy)phenoxy)-3-hydroxy-3-(hydroxymethyl)pyrrolidin-1-yl)sulfonyl) picolinonitrile]
